Assay results published in US12227488B2, “Small molecule degraders of Helios and methods of use” (DANA-FARBER CANCER INSTITUTE, INC., priority 2018, dated 2025).

Legend:
IKZF2 = experiment: Cellular degradation assay, eGFP-IKZF2Δ fusion with mCherry reporter in Flp-In 293 cells; format: cell-based; settings: 5 h incubation, n=1
In short: (§1)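 DC50,5 h derived by variable-slope nonlinear fit of the per-well ratio of GFP-positive to mCherry-positive cells, imaged after 5 h compound exposure at 0.5% DMSO.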

GSPT1 = GSPT1 (Homo sapiens, UniProt P15170+Q96SW2); experiment: Cellular degradation assay, eGFP-GSPT1 fusion with mCherry reporter in Flp-In 293 cells; format: cell-based; parameters: expressed in transfected cells; host or cells: Flp-In 293; settings: 5 h incubation, n=1
In short: as §1

IKZF1 = biological target: T1, IKZF1 (Homo sapiens, UniProt Q13422); experiment: Cellular degradation assay, eGFP-IKZF1Δ fusion with mCherry reporter in Flp-In 293 cells; format: cell-based; settings: 5 h incubation, n=1
T1 construct: expressed in transfected cells; host or cells: Flp-In 293
In short: as §1

CRBN and Helios (IKZF2) = biological target: T2, CRBN and Helios (IKZF2) (Homo sapiens, UniProt Q96SW2+Q9UKS7); experiment: TR-FRET dimerization assay (CRBN-IKZF2 ternary complex formation); format: binding; settings: n=1
T2 construct: His (N); Strep (N)
In short: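 Compound-induced IKZF2 recruitment to CRBN was read as the 520/490 nm TR-FRET ratio after 15 min at rt. The mix held biotinylated IKZF2, BODIPY-labeled CRBN bound to DDB1 lacking the BPB propeller, tracer Tb-streptavidin and compound titrations; n=1, from ≥3 technical replicates per well.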

SALL4 ZNF1-2 = biological target: T3, SALL4 ZNF1-2 (Homo sapiens, UniProt Q96SW2+Q9UJQ4); experiment: Cellular degradation assay, eGFP-SALL4 ZnF1-2 fusion with mCherry reporter in Flp-In 293 cells; format: cell-based; settings: 5 h incubation, n=1
T3 construct: IKZF1Δ, IKZF2Δ, GSPT1 and SALL4 ZnF1-2 were subcloned; expressed in transfected cells; host or cells: Flp-In 293
In short: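 Read-out is the ratio of GFP-positive to mCherry-positive cells per well, imaged at 488 and 561 nm right after 5-hour compound exposure (normalised to 0.5% DMSO). Cells: Flp-In 293 stably carrying eGFP-P2A-mCherry construct fused to SALL4 ZnF1-2.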

[1] = compound concentration 2.00E−05
[2] = compound concentration 2.00E−06
[3] = compound concentration 2.00E−07
[4] = compound concentration 6.6667E−05
[5] = compound concentration 6.6667E−06
[6] = compound concentration 6.6667E−07 (667 nM)

GSPT1, sequence (P15170 whole entry, the tested form may be a part): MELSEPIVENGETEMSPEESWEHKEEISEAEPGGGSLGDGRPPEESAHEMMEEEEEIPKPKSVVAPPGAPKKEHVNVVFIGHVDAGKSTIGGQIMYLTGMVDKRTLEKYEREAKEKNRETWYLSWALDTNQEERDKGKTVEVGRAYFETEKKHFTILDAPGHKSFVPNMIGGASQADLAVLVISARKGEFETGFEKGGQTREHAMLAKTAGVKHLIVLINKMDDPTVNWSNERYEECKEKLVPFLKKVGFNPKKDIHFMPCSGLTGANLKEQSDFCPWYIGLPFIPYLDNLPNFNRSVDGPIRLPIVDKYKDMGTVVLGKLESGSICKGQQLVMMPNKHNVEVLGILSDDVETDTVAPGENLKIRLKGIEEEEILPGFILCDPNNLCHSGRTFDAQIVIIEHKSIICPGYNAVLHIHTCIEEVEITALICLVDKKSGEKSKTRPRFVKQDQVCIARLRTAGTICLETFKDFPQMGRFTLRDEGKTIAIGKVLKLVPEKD
GSPT1, sequence (Q96SW2 whole entry, the tested form may be a part): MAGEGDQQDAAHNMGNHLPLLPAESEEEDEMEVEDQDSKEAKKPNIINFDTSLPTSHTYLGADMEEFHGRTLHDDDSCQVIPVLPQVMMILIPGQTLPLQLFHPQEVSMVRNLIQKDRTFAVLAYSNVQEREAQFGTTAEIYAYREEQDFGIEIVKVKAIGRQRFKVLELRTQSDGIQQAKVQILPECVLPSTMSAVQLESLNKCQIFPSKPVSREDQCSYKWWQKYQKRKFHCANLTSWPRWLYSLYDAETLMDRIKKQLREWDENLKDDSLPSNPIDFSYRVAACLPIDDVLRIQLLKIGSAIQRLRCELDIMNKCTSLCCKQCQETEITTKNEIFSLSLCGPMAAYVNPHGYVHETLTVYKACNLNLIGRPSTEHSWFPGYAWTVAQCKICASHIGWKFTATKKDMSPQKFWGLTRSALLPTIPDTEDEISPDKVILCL
GSPT1, sequence (Q16531 whole entry partner, the tested form may be a part): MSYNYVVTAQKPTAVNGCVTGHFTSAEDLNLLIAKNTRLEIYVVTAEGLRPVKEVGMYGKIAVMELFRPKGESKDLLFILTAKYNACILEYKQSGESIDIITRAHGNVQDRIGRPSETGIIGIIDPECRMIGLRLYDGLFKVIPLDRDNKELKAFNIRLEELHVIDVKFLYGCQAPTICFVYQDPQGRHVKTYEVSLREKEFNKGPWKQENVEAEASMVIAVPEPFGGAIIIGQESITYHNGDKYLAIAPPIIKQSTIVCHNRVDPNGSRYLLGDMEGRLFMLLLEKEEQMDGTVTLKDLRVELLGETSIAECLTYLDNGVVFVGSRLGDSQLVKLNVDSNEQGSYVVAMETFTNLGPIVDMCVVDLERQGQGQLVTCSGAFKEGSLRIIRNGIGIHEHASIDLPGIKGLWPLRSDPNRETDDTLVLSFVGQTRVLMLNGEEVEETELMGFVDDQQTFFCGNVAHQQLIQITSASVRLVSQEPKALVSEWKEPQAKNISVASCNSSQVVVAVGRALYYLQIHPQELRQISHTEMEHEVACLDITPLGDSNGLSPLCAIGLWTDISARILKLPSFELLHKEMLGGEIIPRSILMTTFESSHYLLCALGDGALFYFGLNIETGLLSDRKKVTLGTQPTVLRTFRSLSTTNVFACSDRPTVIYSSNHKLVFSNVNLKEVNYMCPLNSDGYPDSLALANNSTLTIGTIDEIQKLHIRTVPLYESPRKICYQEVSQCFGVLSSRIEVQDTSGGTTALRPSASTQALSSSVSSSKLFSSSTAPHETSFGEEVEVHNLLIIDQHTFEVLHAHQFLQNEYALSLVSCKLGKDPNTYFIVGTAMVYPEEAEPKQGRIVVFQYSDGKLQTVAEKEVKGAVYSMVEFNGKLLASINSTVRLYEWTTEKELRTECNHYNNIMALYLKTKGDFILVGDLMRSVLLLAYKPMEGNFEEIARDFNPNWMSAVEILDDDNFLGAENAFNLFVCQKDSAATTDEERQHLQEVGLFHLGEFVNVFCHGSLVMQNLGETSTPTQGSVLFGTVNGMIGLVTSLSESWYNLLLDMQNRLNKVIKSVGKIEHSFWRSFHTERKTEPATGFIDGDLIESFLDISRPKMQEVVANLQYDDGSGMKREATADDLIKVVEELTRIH
T2 sequence (Q96SW2 whole entry): as the sequence (Q96SW2 whole entry, the tested form may be a part) above
T2 sequence (Q9UKS7 whole entry): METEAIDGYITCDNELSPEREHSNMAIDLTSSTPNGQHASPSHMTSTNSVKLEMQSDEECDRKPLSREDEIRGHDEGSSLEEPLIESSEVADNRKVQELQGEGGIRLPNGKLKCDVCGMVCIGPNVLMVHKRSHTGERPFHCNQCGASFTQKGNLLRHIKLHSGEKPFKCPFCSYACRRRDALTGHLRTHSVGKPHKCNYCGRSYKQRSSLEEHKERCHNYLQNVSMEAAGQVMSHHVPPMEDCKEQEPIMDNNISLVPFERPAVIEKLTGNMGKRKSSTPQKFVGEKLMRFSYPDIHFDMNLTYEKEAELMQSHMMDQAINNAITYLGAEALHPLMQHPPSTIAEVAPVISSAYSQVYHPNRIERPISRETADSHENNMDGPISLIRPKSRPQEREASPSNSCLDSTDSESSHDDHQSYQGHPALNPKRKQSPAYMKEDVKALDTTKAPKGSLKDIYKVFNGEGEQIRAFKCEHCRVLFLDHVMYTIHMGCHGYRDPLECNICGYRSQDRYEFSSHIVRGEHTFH
T1 sequence (Q13422 83-213 isoform Q13422-7 limits assumed): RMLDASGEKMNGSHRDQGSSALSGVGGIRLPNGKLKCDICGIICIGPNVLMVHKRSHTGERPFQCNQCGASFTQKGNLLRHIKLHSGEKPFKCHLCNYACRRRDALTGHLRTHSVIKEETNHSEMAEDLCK
T1 sequence (Q96SW2 whole entry partner, the tested form may be a part): as the sequence (Q96SW2 whole entry, the tested form may be a part) above
T1 sequence (Q16531 2-1140 partner limits assumed): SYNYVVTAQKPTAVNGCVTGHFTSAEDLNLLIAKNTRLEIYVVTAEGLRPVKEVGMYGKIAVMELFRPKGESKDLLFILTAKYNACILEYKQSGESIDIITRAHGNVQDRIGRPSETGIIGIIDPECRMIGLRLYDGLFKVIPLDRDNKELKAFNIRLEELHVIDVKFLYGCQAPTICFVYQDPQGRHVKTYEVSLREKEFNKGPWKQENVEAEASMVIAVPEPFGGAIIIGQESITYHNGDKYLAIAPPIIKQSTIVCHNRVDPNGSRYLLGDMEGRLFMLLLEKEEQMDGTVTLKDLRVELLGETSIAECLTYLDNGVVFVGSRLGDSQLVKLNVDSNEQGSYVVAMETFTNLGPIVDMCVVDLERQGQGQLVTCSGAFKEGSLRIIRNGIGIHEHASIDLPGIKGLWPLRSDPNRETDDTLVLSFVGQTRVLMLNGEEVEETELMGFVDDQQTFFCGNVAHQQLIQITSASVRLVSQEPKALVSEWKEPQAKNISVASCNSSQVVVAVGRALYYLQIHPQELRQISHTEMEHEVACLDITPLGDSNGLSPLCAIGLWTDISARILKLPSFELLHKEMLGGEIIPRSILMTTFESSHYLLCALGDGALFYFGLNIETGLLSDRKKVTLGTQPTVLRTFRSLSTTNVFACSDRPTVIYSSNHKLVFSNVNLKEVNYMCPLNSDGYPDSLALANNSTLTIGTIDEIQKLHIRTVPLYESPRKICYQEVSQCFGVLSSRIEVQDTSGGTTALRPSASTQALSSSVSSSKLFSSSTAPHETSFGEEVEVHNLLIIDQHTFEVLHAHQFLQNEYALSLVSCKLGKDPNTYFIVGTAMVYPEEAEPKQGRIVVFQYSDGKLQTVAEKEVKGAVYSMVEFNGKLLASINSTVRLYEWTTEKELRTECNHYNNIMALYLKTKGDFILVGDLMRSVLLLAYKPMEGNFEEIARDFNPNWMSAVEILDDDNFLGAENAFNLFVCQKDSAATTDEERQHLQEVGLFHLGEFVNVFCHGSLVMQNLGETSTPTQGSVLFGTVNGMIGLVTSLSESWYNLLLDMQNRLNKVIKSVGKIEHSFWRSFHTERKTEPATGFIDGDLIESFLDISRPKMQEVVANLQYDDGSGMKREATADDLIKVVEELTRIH
T3 sequence (Q9UJQ4 378-438 limits assumed): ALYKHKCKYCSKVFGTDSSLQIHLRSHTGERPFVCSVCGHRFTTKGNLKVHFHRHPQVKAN
T3 sequence (Q96SW2 whole entry, the tested form may be a part): as the sequence (Q96SW2 whole entry, the tested form may be a part) above
T3 sequence (Q16531 whole entry partner, the tested form may be a part): as the sequence (Q16531 whole entry partner, the tested form may be a part) above

Row | Compound | IKZF2 GFP/RFP Relative Abundance (IKZF2; [1]) | IKZF2 GFP/RFP Relative Abundance (IKZF2; [2]) | IKZF2 GFP/RFP Relative Abundance (IKZF2; [3]) | GSPT1 GFP/RFP Relative Abundance (GSPT1; [1]) | GSPT1 GFP/RFP Relative Abundance (GSPT1; [2]) | GSPT1 GFP/RFP Relative Abundance (GSPT1; [3]) | IKZF1 GFP/RFP Relative Abundance (IKZF1; [1]) | IKZF1 GFP/RFP Relative Abundance (IKZF1; [2]) | IKZF1 GFP/RFP Relative Abundance (IKZF1; [3]) | TR-FRET-IKZF2 (Normalized to CC-885) (CRBN and Helios (IKZF2); [4]) | TR-FRET-IKZF2 (Normalized to CC-885) (CRBN and Helios (IKZF2); [5]) | TR-FRET-IKZF2 (Normalized to CC-885) (CRBN and Helios (IKZF2); [6]) | SALL4 ZNF1-2 GFP/RFP Relative Abundance (SALL4 ZNF1-2; [1]) | SALL4 ZNF1-2 GFP/RFP Relative Abundance (SALL4 ZNF1-2; [2]) | SALL4 ZNF1-2 GFP/RFP Relative Abundance (SALL4 ZNF1-2; [3])
1 | O=C1CCC(N2C(=O)C=C(Nc3cccc(-c4cc[nH]n4)c3)C2=O)C(=O)N1 (stereo not drawn) [Compound 31, 3-(3-((3-(1H-pyrazol-3-yl)phenyl)amino)-2,5-dioxo-2,5-dihydro-1H-pyrrol-1-yl)piperidine-2,6-dione] | 0.494 | 0.638 | 0.766 | 0.666 | 1.197 | 1.240 | 0.254 | 0.290 | 0.399 | 0.628 | 0.521 | 0.434 | 0.755 | 0.626 | 0.713
2 | Cc1ccc(NC(=O)NCCCNC2=CC(=O)N(C3CCC(=O)NC3=O)C2=O)cc1Cl (stereo not drawn) [Compound 47, 1-(3-chloro-4-methylphenyl)-3-(3-((1-(2,6-dioxopiperidin-3-yl)-2,5-dioxo-2,5-dihydro-1H-pyrrol-3-yl)amino)propyl)urea] | 1.019 | 1.051 | 0.995 | 0.034 | 0.041 | 0.036 | 0.312 | 0.298 | 0.326 | 0.288 | 0.230 | 0.191 | 1.060 | 1.039 | 1.010
3 | COC(=O)c1n[nH]c(NC2=CC(=O)N(C3CCC(=O)NC3=O)C2=O)n1 (stereo not drawn) [Compound 20, Methyl 5-((1-(2,6-dioxopiperidin-3-yl)-2,5-dioxo-2,5-dihydro-1H-pyrrol-3-yl)amino)-1H-1,2,4-triazole-3-carboxylate] | 0.952 | 0.987 | 1.025 | 0.901 | 1.036 | 1.069 | 0.721 | 0.895 | 0.342 | 0.050 | 0.017 | 0.014 | 0.894 | 0.908 | 0.892
4 | O=C(O)CCCNC1=CC(=O)N(C2CCC(=O)NC2=O)C1=O (stereo not drawn) [Compound 21, 4-((1-(2,6-dioxopiperidin-3-yl)-2,5-dioxo-2,5-dihydro-1H-pyrrol-3-yl)amino)butanoic acid] | 0.996 | 0.951 | 0.946 | 0.693 | 0.938 | 0.909 | 0.842 | 0.975 | 0.998 | 0.047 | 0.019 | 0.012 | 0.937 | 0.921 | 0.957
